This is an account of results in patent US20240148728A1, “NOVEL METHOD TO BLOCK IN[…] DEATH AND IL-1BETA SECRETION CAUSED BY […] UV I[…] GENETIC AND CHEMICAL INHIBITORS OF ZAKA AND THE NLRP1 INFLAMMASOME” (priority 2021, published 2024).

Holding throughout (assay type): cell-based, human
For one assay, the system named is 293T-ASC-GFP-NLRP1. As to conditions: 293T-NLRP1-ASC-GFP reporter cells; BTZ 0.5 μM, MLN4924 0.25 μM.
In assay [1] the test system is N-TERT cells. In words: Secreted IL1β / inflammasome activation in N-TERT cells. The following applies: N-TERTs; BTZ 0.5 μM, MLN4924 0.25 μM. The protocol: (§1) To measure secreted cytokine and chemokine levels a human IL1β enzyme linked immunosorbent assay (ELISA) kit (BD, #557953), human IL-18 ELISA kit (MBL, #7620) or an Immune Monitoring 65-Plex Human ProcartaPlex Panel (EPX650-10065-901) were used according to manufacturer's protocols. Further analysis of Luminex or ELISA profiling of samples was performed using heatmap and PCA analysis on Clustervis (biitdotcsdotutdotee/clustvis/) [Somani et al., Proceeding of SSIC (2019)].
(§2) The following antibodies were used in this study: cleaved PARP1 (Abclonal, #WH162766), Cleaved CASP3 (Abclonal, #WH154646), Full length GSDMD-FL (Abcam, #ab210070), IL1β p17 specific (CST, #83186S), CARD8 (Abcam, CARD8-NT: ab19485, CARD8-CT: ab241186), DPP9 (Abcam, ab226334), c-Myc (Santa Cruz Biotechnology, #sc-40), HA tag (Santa Cruz Biotechnology, #sc-805), GAPDH (Santa Cruz Biotechnology, #sc-47724), ASC (Adipogen, #AL-177), CASP1 (Santa Cruz Biotechnology, #sc-622), 11_1B (R&D systems, #AF-201), FLAG (SigmaAldrich, #F3165), NLRP1 (R&D systems, #AF6788), IL18 (Abcam ab207324), cleaved GSDMD-NT (Asp275) (Cell Signaling Technology, #36425), RPL31 (Abclonal, #WH162766), CASP7 (Abcam, ab255818), CASP8 (Abcam, ab32397), cleaved CASP3 (Cell Signaling Technology, #9664). All horseradish peroxidase (HRP)— conjugated secondary antibodies were purchased from Jackson Immunoresearch (goat anti-mouse IgG: 115-035-166; goat anti-rabbit IgG: 111-035-144; and donkey anti-goat IgG: 705-005-147). Blue-Native PAGE was carried out using the Native-PAGE system (ThermoFisher) with 10-20 μg of total lysate. For SDS-PAGE using whole cell lysates, cells were resuspended in tris-buffered saline 1% NP-40 with protease inhibitors (Thermo Scientific, #78430). Protein concentration was determined using the Bradford assay (Thermo Scientific, #23200) and […] of protein loaded, a part from cleaved GSDMD-NT visualisation where […] of protein was used. All primary antibodies were used at 250 ng/ml. Visualisation of ASC oligomerization was previously described (Robinson et al., 2020). For analysis of IL1β and IL-18 cleavage in the media by immunoblotting, samples were concentrated using filtered centrifugation (Merck, Amicon Ultra, #UFC5003BIK). Protein samples were run using immunoblotting, and then visualized using a ChemiDoc Imaging system (Bio-Rad). PhosTag SDS-PAGE was carried out using homemade 10% SDS-PAGE gel, with addition of Phos-tag Acrylamide (Wako Chemicals, AAL-107) to a final concentration of 30 μM and manganese chloride(II) (Sigma-Aldrich, #63535) to 60 μM.

The next assay deals with NLRP1-NT. In words: NLRP1 cleavage / NLRP1-NT level by immunoblot.
Text: as §2

Assay [2] concerns N-TERT cells. Briefly: UVB triggered cell death and IL-1beta release in N-TERT cells. The protocol: For UVA and UVB irradiation experiments, cells were seeded 24 hours prior to irradiation, and washed once in phosphate buffered saline pH 7.4 before being exposed to indicated dose of irradiation using a BIO-SUN microprocessor controlled, cooled UV irradiation system (BIO-SUN, Vilber). After exposure, PBS was replaced by keratinocyte medium and cells were incubated for indicated time.
as §1

Regarding `NS(=O)(=O)OC[C@@H]1C[C@@H](n2ccc3c(N[C@H]4CCc5ccccc54)ncnc32)C[C@@H]1O` [MLN4924, ((1S,2S,4R)-4-(4-(((S)-2,3-dihydro-1H-inden-1-yl)amino)-7H-pyrrolo[2,3-d]pyrimidin-7-yl)-2-hydroxycyclopentyl)methyl sulfamate], the “effect on ANS- and TNFα+DT-triggered NLRP1 activation” value with 293T-ASC-GFP-NLRP1 is “abrogated ANS- and TNFα+DT-triggered NLRP1 activation”; in the assay with N-TERT cells [1], “abrogated ANS- and TNFα+DT-triggered NLRP1 activation”. Further, the “effect on ribotoxin-triggered NLRP1-NT destabilization” value with NLRP1-NT is given as “could be blocked”. For the same compound, the “effect on UVB-dependent NLRP1 activation” value in the assay with N-TERT cells [2] is listed as “abrogated”. The “effect on UVB triggered cell death (PI positive cells)” value with N-TERT cells [2] (18-hour incubation) was “blocks UVB triggered cell death and IL-1beta release”. In addition, the “effect on UVB triggered IL-1beta release” value in the assay with N-TERT cells [2] (IL1β ELISA of cell media) was “blocks UVB triggered cell death and IL-1beta release”.
